# Literature values in US7250416B2, “Azacytosine analogs and derivatives” (SuperGen, Inc., priority 2005, dated 2007).
# Where two headings read alike, the source gives them in different places.
# What was measured:
# [1] = for steady-state plasma concentration: estimated
# cytidine deaminase = molecular target: T1, cytidine deaminase (Homo sapiens, UniProt P32320); details: by cytidine deaminase at equal concentrations
# T1 construct: the enzyme purified from human liver; from tissue; host or cells: human liver
# T1 sequence (P32320 whole entry): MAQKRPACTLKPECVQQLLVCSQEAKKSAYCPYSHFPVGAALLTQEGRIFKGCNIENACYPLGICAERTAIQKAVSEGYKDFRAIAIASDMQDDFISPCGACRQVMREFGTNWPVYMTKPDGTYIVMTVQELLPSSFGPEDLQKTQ
SMILES,time of hydrolysis to the amidino-urea derivative (1h) (alkaline medium),"stability in aqueous media (aqueous media, hydrolytic degradation)",maximum infusion time of reconstituted solution (reconstituted aqueous solution stored in the refrigerator for less than 7 hr),steady-state plasma concentration ([1]; 6-hour infusion of 100 mg/m^2),range of concentrations during infusion ([1]; 600-mg/m^2 infusion),half-life after discontinuing the infusion ([1]; humans),"total urinary excretion, % of the administered dose ([1]; humans)",volume of distribution ([1]; humans),"terminal half-life ([1]; humans, measured by bioassay)",steady-state plasma concentration ([1]; infusion rate of 1 mg/kg/h),"plasma concentration ([1]; infusion times of 40–60 hours, infusion rate 1 mg/kg/h)","penetration into the cerebrospinal fluid, % of the plasma concentration ([1]; man, end of a 36-hour intravenous infusion)","plasma concentration ([1]; patients, 100 mg/m^2 as a 3-hour infusion)",rate of deamination relative to that of decitabine (cytidine deaminase)
"Nc1ncn([C@H]2C[C@H](O)[C@@H](CO)O2)c(=O)n1 [decitabine, 5-aza-2′-deoxycytidine]",within a few minutes,unstable,≤ 3 h,0.31 to 0.39 µg/mL,0.41 to 16 µg/mL,12 to 20 min,less than 1%,about 4.6 L/kg,10 to 35 min,0.2 to 0.5 µg/mL,430 to 760 ng/mL,14–21%,about 0.4 μg/ml,
"Nc1ccn([C@H]2C[C@H](O)[C@@H](CO)O2)c(=O)n1 [deoxycytidine, 2′-deoxycytidine]",,,,,,,,,,,,,,about 6 fold
